Measured values from patent EP1881000A1, “Conjugates of 2-fluoro-2-deoxy-glucose and their uses as anti cancer agents” (INSTITUT NATIONAL DE LA SANTE ET DE LA RECHERCHE MEDICALE …, priority 2006, dated 2008).
Where “and” joins values, the source holds several entries; their conditions need not be identical. Identical values can stand only once.

Experiments:
[1] = tested on: Breast cancer adenocarcinoma MCF 7; experiment: In vitro cytotoxicity assay (resazurin reduction test); type: cell-based; settings: Homo sapiens; MCF7; 48-h continuous drug exposure
Description: (§1) Normal human fibroblasts were purchased from Promocell (Heidelberg, Germany). This frozen culture was obtained from foreskin waste and the cells used in this work were from the seventh to twelfth passage of the culture. M4Beu, a human melanoma cell line, was established in the laboratory of Dr. J. F. Doré (INSERM, Unit 218, Lyon, France) from metastatic biopsy specimens and maintained in cell culture for almost 20 years in our lab. Breast cancer adenocarcinoma MCF 7, prostatic adenocarcinoma PC 3, colon adenocarcinoma DLD-1, lung non-small cell carcinoma A 549, ovary adenocarcinoma PA1 human cell lines and L 929 murine cell line were purchased from the European Collection of Cell Cultures (ECACC; Salisbury, United Kingdom). Murine Melanoma B16 was purchased from American Type of Culture Collection (ATCC, Manassas, USA) and murine colon carcinoma cell line CT-26 was obtained from Dr I. J. Fidler (University of Texas M.D. Anderson Cancer Center, Houston).
(§2) Stock cell cultures were maintained as monolayers in 75cm^2 culture flasks in Glutamax Eagle's minimum essential medium with Earle's salts (MEM; Gibco BRL, Paisley, UK) supplemented with 10% fetal calf serum (Sigma, St Quentin Fallavier, France), 1 mM sodium pyruvate (Gibco), 1X vitamins solution (Gibco), 1X non essential amino acids solution (Gibco) and 4 µg/ml of gentamicine (Gibco). Cells were grown at 37°C in a humidified atmosphere containing 5% CO2.
(§3) Cells were plated at a density of 5 x 10^3 cells per well in 96-well microplates (Nunclon™, Nunc, Roskilde, Denmark) in 150 µl of culture medium and were allowed to adhere for 16 h before treatment with the compound tested.
(§4) Stock solution of each compound was prepared in dimethylsulfoxide (DMSO) and kept at -20°C. until use. The percentage of DMSO was kept at 0.5% (v/v) whichever the concentration tested. […] Fifty microliters of a 4X solution in MEM was then added and a 48-h continuous drug exposure protocol was used. Then, the cytotoxic effect of compounds on tumour cells was tested by using Resazurin reduction test.
(§5) Resazurin was identified as the Alamar blue dye (O'Brien, J. et al.; European Journal of Biochemistry, 267, 5421-6, (2000)). The resazurin reduction test (RRT) was carried out according to the protocol described here. Briefly, plates were rinsed by 200 µl PBS (37° C, Gibco) using a multichannel dispenser (Labsystems, Helsinki, Finland) and emptied by overturning on absorbent toweling. Then, 150 µl of a 25 µg/ml solution of resazurin in MEM without SVF nor Phenol red was added in each well. The plates were incubated 1 h at 37° C. in an humidified atmosphere with 5% of CO2 for fluorescence development by living cells. Fluorescence was then measured on the automated 96-well plate reader Fluoroskan Ascent FL™ (Labsystems) using an excitation wavelength of 530 nm and an emission one of 590 nm.
Cytotoxic activity has been tested against the six human tumour cell lines breast adenocarcinoma MCF-7, colon adenocarcinoma DLD-1, ovary adenocarcinoma PA1, prostatic adenocarcinoma PC3, lung carcinoma A549, melanoma M4Beu and a primary culture of human fibroblasts.

[2] = tested on: murine colon carcinoma cell line CT-26; experiment: as above; type: cell-based; settings: Mus musculus; CT26; 48-h continuous drug exposure
Description: as §1, §2, §3, §4, §5

Murine Melanoma B16 = experiment: as above; type: cell-based; settings: Mus musculus, 48-h continuous drug exposure
Description: as §1, §2, §3, §4, §5

B16 melanoma = experiment: Antitumour activity in B16-melanoma bearing mice, IP chemotherapy protocol; type: in vivo, C57BL6J male mice; settings: for Life span of the animals: B16 melanoma-bearing mice; for antitumour activity according to the NCI criteria decisions: in words
Description: (§6) Drugs were dissolved in a mixture of dimethylacetamide (Sigma) and oleic macrogolglycerides (Labrafil® M1944Cs, Gattefossé) (10:90%, vol/vol).
(§7) It is performed in tumour-bearing mice following an IP chemotherapy protocol.
To establish B16 melanoma model, 3 x 10^5 B16F0 cells (ATCC, Manassas, USA; in vitro doubling time of 16 hours) were suspended in 100 µL of phosphate buffer solution (PBS®, life Technologies) and injected into the subcutaneous tissue of the right flank of C57BL6J male mice, 6-weeks-old (Charles River, France) on day zero.
(§8) For both molecules and both animal models, treatment was initiated eight days post tumour grafting, when the tumours had reached a measurable size, corresponding to a calculated tumour weight (CTW) of 40 and 70 mg for B16 and CT-26 models respectively.
(§9) Animals were then randomly divided in both treatment and control groups. […] Two dosages have been evaluated, MTD and 0.75 MTD
(§10) Mice were weighed and observed every two days over a 30-day -period to evaluate general clinical state. Length and width of tumours were measured every two days over a 30-day-period using a dedicated slide calliper.
(§11) The Calculated Tumour Weight (CTW) of each tumour was determined according to the formula: CTW(mg) = L × 1^2 /2 [formula] with L = length in mm and 1= width in mm.
(§12) For subcutaneously growing tumours, antitumour activity is often assessed by using the log10 cell kill (LCK) which is calculated from the following formula: LCK = T-C value in days/3.32 × Td [formula] T is the median time (in days) required for the treatment group tumours to reach a predetermined CTW (e.g. 1000 mg). C is the median time (in days) required for the control group tumours to reach the same CTW. Td is the tumour volume doubling time (in days) estimated from the best fit straight line from a log-linear growth plot of the control group tumours in exponential growth.
(§13) An increase in life span was defined by the ratio of the median survival of drug-treated mice (Mt) versus controls (Mc): a survival Mt/Mc equal or higher than 125 % was sought
(§14) Mean weight loss of the group was used to evaluate treatment side effects. A mean body weight loss of greater 20% was considered to indicate an excessively toxic dosage.

CT-26 colon carcinoma = experiment: Antitumour activity in CT-26 colon carcinoma bearing mice, IP chemotherapy protocol; type: in vivo, BALB/c male mice; settings: for tumour growth inhibition (CTW time-course): CT26 carcinoma, vs non-treated and vehicle-treated groups, p< 0.05; for LCK / Antitumour Efficacy / Survival Mt/Mc / Weight loss (% max) / antitumour activity according to the NCI criteria decisions: CT26 colon carcinoma; for antitumour activity according to the NCI criteria decisions: in words; for Life span of the animals: CT-26 colon carcinoma-bearing mice
Description: as §6, §7
To establish CT-26 colon carcinoma model, 2.5 x 10^5 CT26 cells (Dr Iaiaih J.Filder of MDAnderson Cancer Center, University of Texas; in vitro doubling time of 20 hours) were suspended in 100 µL of phosphate buffer solution and injected into the subcutaneous tissue of the right flank of BALB/c male mice, 6-weeks-old (Charles River, France) on day zero.
as §8, §9, §10, §11
Considering physiopathological features of the CT26 colon carcinoma model, mainly cachexy, drugs 21a and 40a, were assessed at the lowest dosage, i.e. 0.75 MTD administered at Day 8, Day 12, Day 16.
The reference treatment chlorambucil was given at the MTD dosage according to the same schedule.
as §12, §13, §14

[3] = B16 melanoma, dosage not stated
[4] = B16 melanoma, 75% MTD, IP D8, D12, D16
[5] = B16 melanoma, MTD, IP D8, D12, D16
[6] = 0,75 MTD IP at Day 8, 12 and 16

Row | Compound | IC50 [1] | IC50 [2] | IC50 (Murine Melanoma B16) | LCK (B16 melanoma; [3]) | Life span of the animals (B16 melanoma) | Antitumour Efficacy (B16 melanoma; [4]) | LCK (B16 melanoma; [4]) | Survival Mt/Mc (B16 melanoma; [4]) | Weight loss (% max) (B16 melanoma; [4]) | Antitumour Efficacy (B16 melanoma; [5]) | LCK (B16 melanoma; [5]) | Survival Mt/Mc (B16 melanoma; [5]) | Weight loss (% max) (B16 melanoma; [5]) | antitumour activity according to the NCI criteria decisions (B16 melanoma; B16 melanoma) | tumour growth inhibition (CTW time-course) (CT-26 colon carcinoma; [6]) | LCK (CT-26 colon carcinoma; dosage not stated) | Antitumour Efficacy (CT-26 colon carcinoma; 75% MTD, IP D8, D12, D16) | LCK (CT-26 colon carcinoma; 75% MTD, IP D8, D12, D16) | antitumour activity according to the NCI criteria decisions (CT-26 colon carcinoma) | Life span of the animals (CT-26 colon carcinoma) | also measured
1 | CC(=O)OC[C@H]1O[C@@H](NC(=O)CNC(=O)CCCc2ccc(N(CCCl)CCCl)cc2)[C@H](F)[C@@H](OC(C)=O)[C@@H]1OC(C)=O [Compound 21a, N-[2-(3,4,6-tri-O-acetyl-2-deoxy-2-fluoro-β-D-glucopyranosylamino)-2-oxoethyl]-4-{4-[bis(2-chloroethyl)amino]phenyl}butanamide] | 8 ± 2 µM | 7 ± 1 µM | 6.4 ± 0.6 µM | around 1.1 | increased | + (0.7 < LCK < 1.2 active drug (+)) | 1.10 | 1.18 | 16% | + (0.7 < LCK < 1.2 active drug (+)) | 1.02 | 0.74 | 15.7% | active | significant tumour growth inhibition | around 1.1 | + (0.7 < LCK < 1.2 active drug (+)) | 1.10 | active | increased | Survival Mt/Mc (CT-26 colon carcinoma; 75% MTD, IP D8, D12, D16): 1.5; Weight loss (% max) (CT-26 colon carcinoma; 75% MTD, IP D8, D12, D16): 17.1%
2 | CC(=O)OC[C@H]1O[C@@H](Oc2ccc(NC(=O)CNC(=O)CCCc3ccc(N(CCCl)CCCl)cc3)cc2)[C@H](F)[C@@H](OC(C)=O)[C@@H]1OC(C)=O [Compound 40a, N-{2-[4-(3,4,6-tri-O-acetyl-2-deoxy-2-fluoro-β-D-glucopyranosyloxy)phenyl]amino-2-oxoethyl}-4-{4-[bis(2-chloroethyl)amino]phenyl}butanamide] | – | 4.3 ± 0.2 µM | 10 ± 0.5 µM | around 1.5 | increased | ++ (1.7 < LCK < 1.9 highly active drug (++)) | 1.81 | 1.5 | 13.6% | ++ (1.7 < LCK < 1.9 highly active drug (++)) | 1.53 | 0.8 | 16.9% | highly active | significant tumour growth inhibition | around 1.5 | ++ (1.7 < LCK < 1.9 highly active drug (++)) | 1.52 | highly active | increased | Survival Mt/Mc (CT-26 colon carcinoma; 75% MTD, IP D8, D12, D16): 1.29; Weight loss (% max) (CT-26 colon carcinoma; 75% MTD, IP D8, D12, D16): 21% and 21.5%
3 | O=C(O)CCCc1ccc(N(CCCl)CCCl)cc1 [chlorambucil, reference compound] | > 100 µM | 6.3 ± 0.4 µM | 42.6 ± 9.5 µM | < 0.7 | not | - (LCK < 0.7 inactive drug (-)) | 0.05 | 0.67 | 7.3% | - (LCK < 0.7 inactive drug (-)) | 0.24 | 1 | 13.6% | inactive | – | 0.79 | – | – | discrete antitumour activity | not | tumour growth inhibition (CTW time-course) (B16 melanoma; B16 melanoma, both MTD and 0,75 MTD dosages, vs non-treated and vehicle-treated groups, p< 0.05): failed to induce any tumour growth inhibition; antitumour activity according to the NCI criteria decisions (B16 melanoma; B16 melanoma, listed as Chlorambucil): failed in exhibiting any antitumour activity; tumour growth inhibition (CTW time-course) (CT-26 colon carcinoma; MTD dosage, same schedule): significant tumour growth inhibition; LCK (CT-26 colon carcinoma; MTD, IP D8, D12, D16): 0.79; Survival Mt/Mc (CT-26 colon carcinoma; MTD, IP D8, D12, D16): 0.74; Weight loss (% max) (CT-26 colon carcinoma; MTD, IP D8, D12, D16): 13.9%; antitumour activity according to the NCI criteria decisions (CT-26 colon carcinoma; listed as Chlorambucil): failed in exhibiting any antitumour activity
